Results taken from ChEMBL document CHEMBL1150414, “Synthesis, nano-scale assembly, and in vivo anti-thrombotic activity of novel short peptides containing L-Arg and L-Asp or L-Glu” (2008).
Values joined by “and” are separate entries in the source; they are usually repeats but may differ in a detail not shown here. Equal entries are not always repeated. Starred links: 1 amine or outer side, 2 acyl side, 3 side chain; linkers in the order of their positions; H or OH if unused. Non-standard residues stand in square brackets, D forms with d. Residues, ends and D or L forms follow the SMILES beside them. Groups on a side chain read outwards from the residue. βAsp = O=C(O)[C@H](CC(=O)[*:2])N[*:1]

Tests used:
[1] = tested on: Rattus norvegicus; assay: Antithrombotic activity in iv dosed Wistar rat assessed as reduction of thrombus weight; type: functional, organism-based
[2] = tested on: Rattus norvegicus; assay: Antithrombotic activity in Wistar rat assessed as reduction of thrombus weight at 5 umol/kg, iv; type: functional
[3] = tested on: Rattus norvegicus; assay: Antithrombotic activity in Wistar rat assessed as thrombus weight at 5 umol/kg, po; type: functional
[4] = tested on: Rattus norvegicus; assay: Antithrombotic activity in Wistar rat assessed as thrombus weight at 20 mg/kg, po; type: functional

Row | SMILES | Activity [1] | other results
1 | N=C(N)NCCC[C@H](NC(=O)C[C@H](NC(=O)CC[C@H](N)C(=O)N[C@@H](CC(=O)O)C(=O)N[C@@H](CCCNC(=N)N)C(=O)O)C(=O)O)C(=O)O (H-Glu([βAsp-Arg])-Asp-Arg-OH) | Dose-dependent effect | –
2 | N=C(N)NCCC[C@H](NC(=O)C[C@H](N)C(=O)N[C@@H](CCCNC(=N)N)C(=O)N[C@@H](CC(=O)O)C(=O)O)C(=O)N[C@@H](CC(=O)O)C(=O)O (H-Asp([Arg-Asp])-Arg-Asp-OH) | – | Activity [2]: 25.12 mg and 15%
3 | N=C(N)NCCC[C@H](NC(=O)C[C@H](NC(=O)C[C@H](N)C(=O)N[C@@H](CC(=O)N[C@@H](CCCNC(=N)N)C(=O)O)C(=O)O)C(=O)O)C(=O)O (H-Asp([βAsp-Arg])-[βAsp]-Arg-OH) | Dose-dependent effect | Activity [3]: 23.2 mg
4 | N=C(N)NCCC[C@H](NC(=O)CC[C@H](N)C(=O)N[C@@H](CCCNC(=N)N)C(=O)N[C@@H](CC(=O)O)C(=O)O)C(=O)N[C@@H](CC(=O)O)C(=O)O (H-Glu([Arg-Asp])-Arg-Asp-OH) | Dose-dependent effect | –
5 | CC(=O)Oc1ccccc1C(=O)O [ASPIRIN] | – | Activity [4]: 8.5 mg
